Results reported in US6638952B1, “Aromatic sulfonyl alpha-cycloamino hydroxamic acid compounds” (Pharmacia Corporation, priority 1997, dated 2003).
Where a name gives a salt, the structure may show the parent alone.

Assays:
recombinant human MMP-13 = biological target: T1, recombinant human MMP-13 (Homo sapiens, UniProt P45452); assay: In vitro metalloprotease inhibition, fluorogenic peptide substrate; assay type: biochemical; details: for IC50: APMA-activated enzyme, room temperature, pH 7.5, substrate 4 μM
T1 construct: made in house

recombinant human MMP-1 = biological target: T2, recombinant human MMP-1 (Homo sapiens, UniProt P03956); assay: as above; assay type: biochemical; details: for IC50: APMA-activated enzyme, room temperature, pH 7.5, substrate 4 μM
T2 construct: made in house; host or cells: transfected HT-1080 cells (provided by Dr. Howard Welgus, Washington University)
T2 sequence (P03956 100-469): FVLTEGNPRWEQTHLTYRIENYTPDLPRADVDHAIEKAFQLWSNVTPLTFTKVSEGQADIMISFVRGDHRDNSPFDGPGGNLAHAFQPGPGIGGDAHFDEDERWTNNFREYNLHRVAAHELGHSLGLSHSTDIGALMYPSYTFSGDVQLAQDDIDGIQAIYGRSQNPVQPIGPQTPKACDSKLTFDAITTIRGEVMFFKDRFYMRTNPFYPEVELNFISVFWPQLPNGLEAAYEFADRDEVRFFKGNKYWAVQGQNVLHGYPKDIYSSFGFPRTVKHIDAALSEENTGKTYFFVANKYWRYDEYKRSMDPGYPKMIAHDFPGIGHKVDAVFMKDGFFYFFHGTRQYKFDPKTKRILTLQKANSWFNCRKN

[1] = tested on: solid tumor cancers (colorectal, pancreatic, ovarian, prostate); details: patients, cited from earlier work
[2] = tested on: neovascularization of the corneal stroma; assay: In vivo angiogenesis assay (corneal micropocket); details: mouse cornea, bFGF/sucralfate pellet, daily dosing, scored at day five; exemplary dose 50 mg/kg bid, po
Experimental: The study of angiogenesis depends on a reliable and reproducible model for the stimulation and inhibition of a neovascular response. The corneal micropocket assay provides such a model of angiogenesis in the cornea of a mouse.
In this assay, uniformly sized Hydron™ pellets containing bFGF and sucralfate were prepared and surgically implanted into the stroma mouse cornea adjacent to the temporal limbus. The pellets were formed by making a suspension of 20 μL sterile saline containing 10 μg recombinant bFGF, 10 mg of sucralfate and 10 μL of 12 percent Hydron™ in ethanol. The slurry was then deposited on a 10×10 mm piece of sterile nylon mesh. […]
Mice were dosed on a daily basis for the duration of the assay. […] At day five, the degree of angiogenic inhibition was scored by viewing the neovascular progression with a slit lamp microscope.
The mice were anesthetized and the studied eye was once again proptosed. The maximum vessel length of neovascularization, extending from the limbal vascular plexus toward the pellet was measured. In addition, the contiguous circumferential zone of neovascularization was measured as clock hours, where 30 degrees of arc equals one clock hour. The area of angiogenesis was calculated as follows. […]
The studied mice were thereafter compared to control mice and the difference in the area of neovascularization was recorded.

Row | SMILES | IC50 (recombinant human MMP-13) [nM] | IC50 (recombinant human MMP-1) [nM] | other results
1 | Cl.O=C(Nc1ccc(S(=O)(=O)CC2(C(=O)NO)CCNCC2)cc1)c1ccccc1 [Example 1, N-hydroxy-4-[[[4-(benzoylamino)phenyl]sulfonyl]methyl]-4-piperidinecarboxamide, monohydrochloride] | 243 | > 10000 | activity against MMP-13 (in words) (recombinant human MMP-13; comment on Table 13): moderate activity; activity against MMP-1 (in words) (recombinant human MMP-1; comment on Table 13): virtually unbound
2 | COc1cccc(CN2CCC(CS(=O)(=O)c3ccc(Oc4ccccc4)cc3)(C(=O)NO)CC2)c1 [Example 3, N-Hydroxy-1-[(3-methoxyphenyl)methyl]-4-[[(4-phenoxyphenyl)sulfonyl]methyl]-4-piperidinecarboxamide, Monohydrochloride] | 0.4 | 330 | 
3 | O=C(NO)C1(CS(=O)(=O)c2ccc(Oc3ccccc3)cc2)CCN(CCc2ccccc2)CC1 [Example 2, N-Hydroxy-4-[[(4-phenoxyphenyl)sulfonyl]-methyl]-1-(2-phenylethyl)-4-piperidinecarboxamide, Monohydrochloride] |  | 700 | 
4 | CNC(=O)[C@@H](NC(=O)[C@H](CC(C)C)[C@H](O)C(=O)NO)C(C)(C)C [marimastat] |  |  | effect on cancer-specific antigens used as surrogate markers for biological activity ([1]; Phase I/II studies, meta analysis): dose-related reduction in the rise of cancer-specific antigens; most common drug-related toxicity ([1]; clinical trials): musculoskeletal pain and stiffness
5 | Cl.O=C(NO)C1(CS(=O)(=O)c2ccc(Oc3ccccc3)cc2)CCNCC1 [Example 6, N-Hydroxy-4-[[(4-phenoxyphenyl)sulfonyl]-methyl]-4-piperidinecarboxamide, Monohydrochloride] | 8 | 2400 | inhibition of area of neovascularization versus control mice [2]: 80.0%
6 | C#CCN1CCC(CS(=O)(=O)c2ccc(Oc3ccccc3)cc2)(C(=O)NO)CC1 [Example 4, N-Hydroxy-4-[[(4-phenoxyphenyl)sulfonyl]-methyl]-1-(2-propynyl)-4-piperidinecarboxamide, Monohydrochloride] | 0.6 | 485 | 

Further lines, with some results ahead:

Row | IC50 (recombinant human MMP-13) [nM] | IC50 (recombinant human MMP-1) [nM] | SMILES | other results
7 | 0.85 |  | C#CCN1CCC(CS(=O)(=O)c2ccc(Oc3ccc(C)c(C)c3)cc2)(C(=O)NO)CC1 [Example 7, N-Hydroxy-4-[[[4-(3,4-dimethylphenoxy)phenyl]sulfonyl]-methyl]-1-(2-propynyl)-4-piperidinecarboxamide, Monohydrochloride] | 
8 | 1.3 |  | C#CCN1CCCC1(CS(=O)(=O)c1ccc(Oc2ccccc2)cc1)C(=O)NO (stereo not drawn) [Example 8, N-Hydroxy-2-[[(4-phenoxyphenyl)sulfonyl]-methyl]-1-(2-propynyl)-2-pyrrolidine Carboxamide, Monohydrochloride] | 
9 | 0.2 | 475 | CC(C)(C)OC(=O)N1CCC(CS(=O)(=O)c2ccc(Oc3ccccc3)cc2)(C(=O)NO)CC1 [Example 5, 1,1-Dimethylethyl Ester 4-[(Hydroxyamino)-carbonyl]-4-[[(4-phenoxyphenyl]sulfonyl]methyl]-1-piperidinecarboxylic Acid] | 
